{"source": "PubChem BioAssay AID1259409", "about": "(Chemical Carcinogenesis Research Information System (CCRIS), 2018)", "origin": "cited, not measured here", "system": "rodent chemically induced tumor inhibition, incidence and multiplicity", "experiment": "CCRIS tumor inhibitor studies", "data": [{"smiles": "CCCC(=O)O", "values": [{"measurement": "tumour outcome (control, treated, inhibition, significance)", "setting": "Carcinogen: 7,12-DIMETHYLBENZ[A]ANTHRACENE, 57-97-6, Dose [Inhibitor]: 0, 6% IN BASAL DIET BEGINNING 1 WK PRIOR TO CARCINOGEN DOSE AND CONTINUING FOR DURATION OF STUDY (STUDY DURATION: >15 WK, Route [Inhibitor]: ORAL, Species: RAT, Strain/Sex: SPRAGUE-DAWLEY/FEMALE, Target Tissue: Type of Lesion: MAMMARY GLAND: ADENOCARCINOMA, Dose [Carcinogen]: 5 MG IN 0.5 ML CORN OIL ONCE, Promoter: NONE USED", "result": "10/26 (38%), 4/20 (20%), 47%, not significant"}, {"measurement": "tumour outcome (control, treated, inhibition, significance)", "setting": "Carcinogen: 7,12-DIMETHYLBENZ[A]ANTHRACENE, 57-97-6, Dose [Inhibitor]: 0, 6% IN BASAL DIET BEGINNING 1 WK PRIOR TO CARCINOGEN DOSE AND CONTINUING FOR DURATION OF STUDY (STUDY DURATION: >15 WK, Route [Inhibitor]: ORAL, Species: RAT, Strain/Sex: SPRAGUE-DAWLEY/FEMALE, Target Tissue: Type of Lesion: MAMMARY GLAND: CARCINOMA, Dose [Carcinogen]: 5 MG IN 0.5 ML CORN OIL ONCE, Promoter: NONE USED", "result": "11/26 (42%), 8/20 (40%), 5%, not significant"}, {"measurement": "tumour outcome (control, treated, inhibition, significance)", "setting": "Carcinogen: 7,12-DIMETHYLBENZ[A]ANTHRACENE, 57-97-6, Dose [Inhibitor]: 0, 6% IN DIET CONTAINING 20% SAFFLOWER MARGARINE BEGINNING 1 WK PRIOR TO CARCINOGEN DOSE AND CONTINUING FOR DURATION OF, Route [Inhibitor]: ORAL, Species: RAT, Strain/Sex: SPRAGUE-DAWLEY/FEMALE, Target Tissue: Type of Lesion: MAMMARY GLAND: ADENOCARCINOMA, Dose [Carcinogen]: 5 MG IN 0.5 ML CORN OIL ONCE, Promoter: NONE USED", "result": "14/19 (74%), 8/20 (40%), 46%, p<0.05"}, {"measurement": "tumour outcome (control, treated, inhibition, significance)", "setting": "Carcinogen: 7,12-DIMETHYLBENZ[A]ANTHRACENE, 57-97-6, Dose [Inhibitor]: 0, 6% IN DIET CONTAINING 20% SAFFLOWER MARGARINE BEGINNING 1 WK PRIOR TO CARCINOGEN DOSE AND CONTINUING FOR DURATION OF, Route [Inhibitor]: ORAL, Species: RAT, Strain/Sex: SPRAGUE-DAWLEY/FEMALE, Target Tissue: Type of Lesion: MAMMARY GLAND: CARCINOMA, Dose [Carcinogen]: 5 MG IN 0.5 ML CORN OIL ONCE, Promoter: NONE USED", "result": "16/19 (84%), 11/20 (55%), 35%, p<0.05"}]}, {"smiles": "CC(C)c1cc2c(c(O)c1O)[C@@]13CCCC(C)(C)[C@@H]1C[C@@H]2OC3=O", "values": [{"measurement": "tumour outcome (control, treated, inhibition, significance)", "setting": "Carcinogen: 7,12-DIMETHYLBENZ[A]ANTHRACENE, 57-97-6, Dose [Inhibitor]: 0, 1 UMOL IN 200 µL ACETONE 2/WK FOR 20 WK BEGINNING 1 WK POST CARCINOGEN DOSE (STUDY DURATION: 20 WK), Route [Inhibitor]: DERMAL, Species: MOUSE, Strain/Sex: CD-1/FEMALE, Target Tissue: Type of Lesion: SKIN: TUMOR, Dose [Carcinogen]: 200 NMOL IN 200 µL ACETONE ONCE, Promoter: 12-O-TETRADECANOYLPHORBOL-13-ACETATE, 16561-29-8", "result": "93%, 93%, 0%, not significant"}, {"measurement": "tumour outcome (control, treated, inhibition, significance)", "setting": "Carcinogen: 7,12-DIMETHYLBENZ[A]ANTHRACENE, 57-97-6, Dose [Inhibitor]: 0, 3 UMOL IN 200 µL ACETONE 2/WK FOR 20 WK BEGINNING 1 WK POST CARCINOGEN DOSE (STUDY DURATION: 20 WK), Route [Inhibitor]: DERMAL, Species: MOUSE, Strain/Sex: CD-1/FEMALE, Target Tissue: Type of Lesion: SKIN: TUMOR, Dose [Carcinogen]: 200 NMOL IN 200 µL ACETONE ONCE, Promoter: 12-O-TETRADECANOYLPHORBOL-13-ACETATE, 16561-29-8", "result": "93%, 78%, 16%, not significant"}, {"measurement": "tumour outcome (control, treated, inhibition, significance)", "setting": "Carcinogen: 7,12-DIMETHYLBENZ[A]ANTHRACENE, 57-97-6, Dose [Inhibitor]: 0, 10 UMOL IN 200 µL ACETONE 2/WK FOR 20 WK BEGINNING 1 WK POST CARCINOGEN DOSE (STUDY DURATION: 20 WK), Route [Inhibitor]: DERMAL, Species: MOUSE, Strain/Sex: CD-1/FEMALE, Target Tissue: Type of Lesion: SKIN: TUMOR, Dose [Carcinogen]: 200 NMOL IN 200 µL ACETONE ONCE, Promoter: 12-O-TETRADECANOYLPHORBOL-13-ACETATE, 16561-29-8", "result": "93%, 60%, 35%, not significant"}]}, {"smiles": "CCOC(=O)/C=C(/C=C/C=C(C)/C=C/c1c(C)cc(OC)c(C)c1C)C(F)(F)F", "values": [{"measurement": "tumour outcome (control, treated, inhibition, significance)", "setting": "Carcinogen: 7,12-DIMETHYLBENZ[A]ANTHRACENE, 57-97-6, Dose [Inhibitor]: 140 NMOL IN 0.2 ML ACETONE 2/WK (D 1 AND D 4 OF EACH WK) 1 HR BEFORE EACH PROMOTER APPLICATION STARTING 14 D AFTER CARCI, Route [Inhibitor]: DERMAL, Species: MOUSE, Strain/Sex: CD-1/FEMALE, Target Tissue: Type of Lesion: SKIN: PAPILLOMA, Dose [Carcinogen]: 0.2 UMOL IN 0.2 ML ACETONE ONCE, Promoter: 12-O-TETRADECANOYLPHORBOL-13-ACETATE, 16561-29-8", "result": "90%, 100%, -11%, not significant"}]}, {"smiles": "CCCCCCCCC/C=C/C=C/C=C/C=C/C=C/C=C/C(=O)OCC", "values": [{"measurement": "tumour outcome (control, treated, inhibition, significance)", "setting": "Carcinogen: AZOXYMETHANE, 25843-45-2, Dose [Inhibitor]: 0, 0.7 ML 2/WK FOR DURATION OF STUDY BEGINNING 1 D PRIOR TO FIRST CARCINOGEN DOSE (STUDY DURATION: 36 WK), Route [Inhibitor]: GAVAGE, Species: RAT, Strain/Sex: F344/MALE, Target Tissue: Type of Lesion: COLON/RECTUM: ADENOMA OR CARCINOMA, Dose [Carcinogen]: 15 MG/KG 1/WK FOR 2 WK, Promoter: NONE USED", "result": "20/40 (50%), 15/33 (45%), 10%, not significant"}]}, {"smiles": "CCCC/C=C\\C=C/O[C@@H](CC)CCC(CCC)CCCCCCCC(=O)O[C@]1(O)[C@]2(O)O[C@H](CO[C@H]3O[C@H](CO)[C@H](O)[C@H](O)[C@H]3O)[C@H](O)[C@@]1(O)O2", "note": "(stereo not given in full)", "values": [{"measurement": "tumour outcome (control, treated, inhibition, significance)", "setting": "Carcinogen: 7,12-DIMETHYLBENZ[A]ANTHRACENE, 57-97-6, Dose [Inhibitor]: 0, 85 NMOL IN 0.1 ML ACETONE 2/WK FOR 20 WK APPLIED 1 HR PRIOR TO EACH PROMOTER DOSE (STUDY DURATION: 21 WK), Route [Inhibitor]: DERMAL, Species: MOUSE, Strain/Sex: ICR/FEMALE, Target Tissue: Type of Lesion: SKIN: PAPILLOMA, Dose [Carcinogen]: 390 NMOL IN 0.1 ML ACETONE ONCE, Promoter: 12-O-TETRADECANOYLPHORBOL-13-ACETATE, 16561-29-8", "result": "100%, 68%, 32%, p<0.05"}]}]}
